Like-named read-outs stand apart in the source and are kept apart here.

Data set [1] can be described thus: Stability on exposure to murine plasma. The class given is in vitro ADME. The source says: (§1) See Chou et al. Proc. Natl. Acad. Sci. USA 98:8113, 2001, incorporated herein by reference, for details.
(§2) However, the apparently disappointing murine in vivo results should be viewed in the context of reports that dEpoB itself evidenced a degree of bioinstability in murine plasma; yet had much longer plasma half-lives in higher organisms, including humans (Chou et al. J. Proc. Natl. Acad. Sci. USA 98:8113, 2001; incorporated herein by reference). The observed discrepancy in efficacy between mice and other mammals, including humans, has been ascribed to higher esterase levels in rodents.

The next data set has as its system CCRF-CEM/VBL100. As to the kind of experiment: XTT cytotoxicity assay, vinblastine-resistant CCRF-CEM/VBL100 cells. The class given is cell-based, human. Conditions: Homo sapiens, CCRF-CEM. The procedure: (§3) XTT assay following 72 h inhibition. CCRF-CEM is a human T-cell acute lymphoblastic leukemia cell line. The CCRF-CEM/VBL100, CCRF-CEM/VM1, and CCRF-CEM/Taxol cell lines all overexpress P-glycoprotein and display a multidrug resistance phenotype to MDR-associated oncolytics. (Chou et al. Proc. Natl. Acad. Sci. USA 98:8113, 2001; incorporated herein by reference).
(§4) A typical experiment invovles culturing cells (e.g., CCRF-CEM) at an initial density of 2-5×10^4 cells per ml. They are maintained in a 5% CO2-humidified atmosphere at 37° C. in RPMI medium 1640 (GIBCO/BRL) containing penicillin (100 units/ml), streptomycin (100 μg/ml) (GIBCO/BRL), and 5% heat-inactivated fetal bovine serum. For cells that were grown in suspension (such as CCRF-CEM and its sublines), cytotoxicitiy is measured by using the 2,-3-bis(2-methoxy-4-nitro-5-sulfophenyl)-5 carboxanilide)-2H terazodium hydroxide (XTT)-microculture tetrazonium method in duplicate in 96-well microtiter plates. For both methods, the absorbance of each well is measured with a microplate reader (EL-340, Bio-Tek, Burlington, Vt.). Each run entails six or seven concentrations of the tested drugs. Dose-effect relationship data are analyzed with the median-effect plot.
(§5) The CCRF-CEM human T cells, acute lymphoblastic leukemic cells, its teniposide-resistant subline (CCRF-CEM/VM1) and vinblastine-resistant subline (CCRF-CEM/VBL100) are obtained from W. T. Beck (University of Illinois, Chicago, Ill.).
A general note: Tetrazolium assays rely on reduction of a dye to a coloured formazan, in cell work by metabolically active cells.

Another data set relates to CCRF-CEM. The data set is described as follows: XTT cytotoxicity assay, CCRF-CEM cells. The class given is cell-based, human. Conditions: for IC50: Homo sapiens, CCRF-CEM. The procedure: as §3, §4, §5
Data set [2] in a line: Stability on exposure to human plasma. The format is in vitro ADME.
Description: as §1, §2

Data set [3] deals with human mammary carcinoma MX-1. The data set is described as follows: Tumor xenograft in nude mice, 6 hr i.v. infusion. The format is in vivo. To be noted: as compared to control mice, MX-1 xenograft, listed as epothilone 490. As to the method:
Athymic nude mice bearing the nu/nu gene are typically used for tumor xenografts. Outbred, Swiss-background mice were obtained from Charles River Laboratories. Male mice 8 weeks or older weighing 22 g and up were used for most experiments. The drug was administered via the tail vein for 6 hr.—i.v. infusion. Each individual mouse was confined in a perforated Falcon polypropylene tube restrainer for drug administration. Tumor volume was assessed by measuring length×width×height (or width) using a caliper. The programmable Harvard PHD2000 syringe pump (Harvard Apparatus) with multi-track was used for i.v. infusion. All animal studies were conducted in accordance with the guidelines of the National Institutes of Health “Guide for the Care and Use of Animals” and the protocol approved by the Memorial Sloan-Kettering Cancer Center's Institutional Animal Care and Use Committee. In keeping with the policy of this committee for the humane treatment of tumor-bearing animals, mice were euthanized when tumors reached ≧10% of their total body weight.
As depicted in FIGS. 14, 15, 16, and 17, Epo490 was tested in nude mice bearing human mammary carcinoma MX-1 following treatment with Epo490 or dEpoB (i.v. infusions for 6 hours). […] Tumor size and body weight were then measured using dosages of 30 mg/kg, 40 mg/kg or 50 mg/kg over 32 and 50 days.

Another data set concerns CCRF-CEM/VM1. The data set is described as follows: XTT cytotoxicity assay, teniposide-resistant CCRF-CEM/VM1 cells. To be noted: Homo sapiens, CCRF-CEM. The class given is cell-based, human. The procedure:
as §3, §4, §5

The test system of the next data set is CCRF-CEM/Taxol. The data set is described as follows: XTT cytotoxicity assay, taxol-resistant CCRF-CEM/Taxol cells. The class given is cell-based, human. Conditions: for IC50: Homo sapiens, CCRF-CEM. The procedure: as §3, §4
The test system of the next data set is tubulin. As to the kind of experiment: Tubulin binding: formation of microtubules in the presence of the compounds. The class given is biochemical. An excerpt: Indeed, the microtubule stabilizing ability closely parallels the observed cytotoxicity data.

Consider `C/C(=C\c1csc(C)n1)[C@@H]1C/C=C(/C(F)(F)F)C/C=C/C[C@H](C)[C@H](O)[C@@H](C)C(=O)C(C)(C)[C@@H](O)CC(=O)O1` [27-Tn-F-[17]ddEpoB (22), 10,11-dehydro-13,14-desoxy-27-trifluoro-[17]epothilone B], for which the “stability in mouse blood plasma” value in data set [1] (compared with the parent compound) is on record as “more stable”. Besides, the IC50 with CCRF-CEM/VBL100 (Example 6 table, XTT assay following 72 h inhibition, read-out: CCRF-CEM/VBL (IC50 (μM))) turned out to be 0.191 µM; in the data set with CCRF-CEM (Example 6 table, XTT assay following 72 h inhibition, read-out: CCRF-CEM (IC50 (μM))), 0.068 µM.

Take `CC1=C/C[C@@H](/C(C)=C/c2csc(C)n2)OC(=O)C[C@H](O)C(C)(C)C(=O)[C@H](C)[C@@H](O)[C@@H](C)C\C=C\1` [Epo490, 10,11-dehydro-12,13-desoxyepothilone B]: the “stability in human versus nude mice plasma” value in data set [2] (FIG. 21 legend) was “increased stability”. Moreover, the “degradation in human plasma” value in data set [2] (after more than 3 hours of exposure in human plasma) is “no measurable degradation”. In addition, the “inhibitory effect on the growth of the implanted tumors” value in data set [3] is reported as “did not demonstrate a statistically significant inhibitory effect”. In addition, the IC50 with CCRF-CEM/VM1 (Example 5 Table 1, 72 h inhibition, read-out: In vitro Cytotoxicities (IC50) C/VM1) was 0.035 µM; with CCRF-CEM/VM1 (Example 11 Table 2, XTT assay following 72-h inhibition, read-out: In Vitro Cytotoxicities (IC50) CCRF-CEM/VMI), 0.035 µM; in the data set on CCRF-CEM/Taxol (Example 5 Table 1, 72 h inhibition, read-out: In vitro Cytotoxicities (IC50) C/Taxol), 0.032 µM; in the data set with CCRF-CEM/Taxol (Example 9 table, read-out: Cell Growth Inhibition (IC50) CCRF-CEM/taxol), 0.013 µM; in the data set with CCRF-CEM/Taxol (Example 11 Table 2, XTT assay following 72-h inhibition, read-out: In Vitro Cytotoxicities (IC50) CCRF-CEM/TAXOL) it was 0.032 µM; in the data set on CCRF-CEM/VBL100 (Example 5 Table 1, 72 h inhibition, read-out: In vitro Cytotoxicities (IC50) C/VBL100), 0.091 µM. Besides, the IC50 amounted to 0.023 µM with CCRF-CEM/VBL100 (Example 9 table, read-out: Cell Growth Inhibition (IC50) CCRF-CEM/VBL); 0.091 µM in the data set with CCRF-CEM/VBL100 (Example 11 Table 2, XTT assay following 72-h inhibition, read-out: In Vitro Cytotoxicities (IC50) CCRF-CEM/VBL100); 0.025 µM in the data set with CCRF-CEM (Example 5 Table 1, 72 h inhibition, read-out: In vitro Cytotoxicities (IC50) CCRF-CEM(C)); 0.009 µM in the data set on CCRF-CEM (Example 9 table, read-out: Cell Growth Inhibition (IC50) CCRF-CEM); 0.025 µM in the data set on CCRF-CEM (Example 11 Table 2, XTT assay following 72-h inhibition, read-out: In Vitro Cytotoxicities (IC50) CCRF-CEM). Also, the “activity in CCRF-CEM cell lines resistant to Taxol” value in the data set on CCRF-CEM/Taxol (Example 12, in words) is given as “demonstrated activity”. Further, the “degradation in murine plasma” value in data set [1] (as compared to dEpoB (FIG. 21)) is recorded as “faster degradation”. Moreover, in the data set with CCRF-CEM (Example 12, in words), the “activity in CCRF-CEM cell lines” value is reported as “demonstrated activity”. The “% Tubulin Binding” value in the data set on tubulin (Example 5 Table 1) and in the data set on tubulin (Microtubules formed in the presence of dEpoB is defined as 100%) was 89% throughout.

Source of the values: patent US20030176368A1, “Synthesis of epothilones, intermediates thereto and analogues thereof” (priority 2001, published 2003).
